According to patent US6623735B1, “Vaccine containing a thiol protease” (priority 1992, dated 2003):
Starred links: 1 amine or outer side, 2 acyl side, 3 side chain; linkers in the order of their positions; H or OH if unused. Residues, ends and D or L forms follow the SMILES beside them. *: point of attachment. AMC = Cc1cc(=O)oc2cc(N*)ccc12; Suc = O=C(CCC(=O)[*:2])[*:1]; Tos = Cc1ccc(S(=O)(=O)*)cc1; Cbz = O=C(OCc1ccccc1)*; Boc = CC(C)(C)OC(=O)*; Bz = O=C(c1ccccc1)*

What was measured:
[1] = tested on: IgG cleaving activity of the E/S products from NEJ flukes; test: Inhibition of IgG cleaving activity of NEJ E/S products; type: biochemical, Fasciola hepatica; conditions: final concentration of 50 μM
Description: (§1) As IgG is involved in antibody-dependent cellular cytotoxicity against helminth parasites and since adult fluke Cathepsin-L1 cleaves mouse IgG2a [see above], the E/S products from NEJ, 3 week-old, 5 week-old and adult flukes were tested for antibody cleaving activity. E/S products from all F. hepatica stages examined were capable of cleaving the purified IgG at the hinge region of the heavy chain and thereby releasing the Fc portion from the antibody binding regions.

[2] = tested on: IgG cleaving activity of the E/S products from adult flukes; test: Inhibition of IgG cleaving activity of adult fluke E/S products; type: biochemical, Fasciola hepatica; conditions: final concentration of 50 μM
Description: as §1

[3] = tested on: F. hepatica cathepsin L2; test: Enzyme kinetic studies, cathepsin L2; type: biochemical, Fasciola hepatica; conditions: 0.1M glycine pH 7.0, 37° C.
Description: (§2) The kinetic constants of F. hepatica cathepsins L1 and L2 enzymes were determined for 11 different substrates: Z-Phe-Arg-AMC, Bz-Phe-Val-Arg-AMC, Suc-Leu-Leu-Val-Tyr-AMC, H-Leu-Val-Tyr-AMC, Tos-Gly-Pro-Lys-AMC, Tos-Gly-Pro-Arg-AMC, Boc-Val-Pro-Arg-AMC, Z-Arg-Arg-AMC, Z-Arg-AMC, Suc-Ala-Phe-Lys-AMC and Boc-Val-Leu-Lys-AMC. One mg of fluorogenic substrate was dissolved in 100 μl of dimethyl formamide. This stock solution was diluted in 0.1M glycine pH 7.0 to achieve the desired concentration of substrate. Each substrate concentration was in triplicate and the final assay volume was 1.0 ml. Included in the 1 ml aliquot was 20 μl of enzyme and 50 μl of 10 mM dithiothreitol. The samples were incubated at 37° C. for 30 min before stopping the reaction with the addition of 200 μl of 1.7 M acetic acid. The samples were assayed for released 7-amino-methyl-coumarin as above. The kinetic constants Vmax and Km were obtained by non-linear regression according to the method of Barrett et al (Biochem J. 201, p.189-198) except that 20 μl of cathepsin L2 was incubated with 20 μl of 1.0 μM-0.1 μM E-64 in a final volume of 80 μl 0.1M glycine pH 7.0 for 30 mins at 37° C. Twenty μl of 1/10 cathepsin L1 was incubated with 20 μl of 5 μM-0.5 μM E-64 in a final volume of 80 μl 0.1M glycine pH 7.0 for 30 min. at 37° C. All of the incubated sample was assayed for the fluorogenic substrate Z-Phe-Arg-AMC as above.

[4] = tested on: F. hepatica cathepsin L1; test: Enzyme kinetic studies, cathepsin L1; type: biochemical, Fasciola hepatica; conditions: 0.1M glycine pH 7.0, 37° C.
Description: as §2

[5] = tested on: E/S products from mature F. hepatica; test: Specific activity against fluorogenic substrates by E/S products, adult flukes; type: biochemical, Fasciola hepatica; conditions: E/S products of adult flukes; means of duplicate results
Description: (§3) Mature flukes were removed from the bile ducts of bovine livers obtained at an abbattoir. Immature parasites were obtained from the liver of male Wistar rats three and five weeks after infection with 20 metacercariae.
(§4) Newly excysted juvenile (NEJ), 3 week-old, 5 week-old and mature F. hepatica were maintained in vitro over a period of 3 days. The culture medium, removed daily, was then assayed for Cathepsin L-like activity using the fluorogenic substrate Z-phe-arg-AMC. Cathepsin L-like activity was present in the E/S products from all stages examined. Whilst the Cathepsin L-like activity increased on a daily basis in the NEJ E/S products, indicating an increase in its secretion with time, the activity of this proteinase in the EIS of all other stages decreased over the same time period. The proteinase activity in the E/S of each liver fluke stage was compared using three arginine-containing fluorogenic peptide substrates. These substrates were chosen on the basis of their affinity for lysosomal cathepsin enzymes; cathepsin L (Z-phe-arg-AMC), cathepsin B (Z-arg-arg-AMC) and cathepsin H (Z-arg-AMC). Significant activity was only detected using the Z-phe-arg-AMC substrate and similar results were obtained for all liver fluke stages examined (Table 2 below).

[6] = tested on: E/S products from 5 week-old F. hepatica; test: Specific activity against fluorogenic substrates by E/S products, 5 week-old flukes; type: biochemical, Fasciola hepatica; conditions: E/S products of 5 week-old flukes; means of duplicate results
Description: as §3, §4

[7] = tested on: E/S products from newly excysted juvenile (NEJ) F. hepatica; test: Specific activity against fluorogenic substrates by E/S products, NEJ; type: biochemical, Fasciola hepatica; conditions: E/S products of NEJ; means of duplicate results
Description: F. hepatica metacercariae (Pfizer strain) encysted on cellophane were removed with a Pasteur pipette into 2% sodium hypochlorite, vortexed and incubated for 30 minutes at 37° C. This procedure removes the outer cyst of the metacercariae. The metacercariae, now only with the inner transparent cyst, were placed into microtitre wells with an automatic pipette using a stereomicroscope and washed in distilled water. They were then incubated in a medium prepared by mixing equal volumes of 0.05M HCl with a solution containing 1% sodium bicarbonate, 0.8% NaCl and 0.2% sodium taurocholate. After 3 hours at 37° C. 70-80% of the flukes were excysted and actively moving. The excysted juveniles were separated from the inner cysts using a 20 μl automatic pipette under a stereomicroscope.
as §4

[8] = tested on: E/S products from 3 week-old F. hepatica; test: Specific activity against fluorogenic substrates by E/S products, 3 week-old flukes; type: biochemical, Fasciola hepatica; conditions: E/S products of 3 week-old flukes; means of duplicate results
Description: as §3, §4

[9] = tested on: antibody-mediated attachment of eosinophils to NEJ; test: Eosinophil adherence to NEJ in vitro assay; type: cell-based, rat
Description: Twenty newly excysted juvenile F. hepatica were dispensed into 100 μl of rat eosinophil-rich suspension in microtitre wells. According to the experiment either 100 μl aliquots of immune serum or control serum were added with or without E/S products or purified Cathepsin L1. The cysteine proteinase inhibitor leupeptin was added in some experiments at a final concentration of 5 μg/ml. All dilutions were made in Roswell Park Memorial Institute 1640 with 4% heat inactivated fetal calf serum. At the end of the experiment juvenile flukes were carefully transferred to a microscope slide and examined microscopically at 40× and 100× magnifications. Individual flukes were examined and the number of bound eosinophils counted. Those NEJ with more than 20 cells attached were considered positive.
When rat eosinophil-rich cell populations were added to NEJ in the presence of immune rat serum (IRS obtained from female Wistar rats orally infected with 30 F. hepatica metacercariae; blood was taken after 5 weeks of infection; the sera obtained were pooled, aliquoted and stored at −20° C. until required; control serum was collected from uninfected rats), cell adherence was consistently high (>90% positive NEJ after 2 hours, FIG. 4, panel A; the scale along the base of the Figure represents percentage of positive NEJ as defined above; the 5 bars represent counts at 2 hour intervals). […]

[10] = tested on: NEJ; design: species or system Fasciola hepatica; conditions: added to NEJ in culture; data not shown

SMILES | inhibition of IgG cleaving activity [1] | inhibition of IgG cleaving activity [2] | Kcat [3] [s⁻¹] | Km [3] [µM] | Kcat [4] [s⁻¹] | Km [4] [µM] | Specific activity against fluorogenic substrates, Adults [5] [μmol AMC/min/Mg] | Specific activity against fluorogenic substrates, 5 weeks [6] [μmol AMC/min/Mg] | Specific activity against fluorogenic substrates, NEJ [7] [μmol AMC/min/Mg] | Specific activity against fluorogenic substrates, 3 weeks [8] [μmol AMC/min/Mg] | effect on action of E/S products and Cathepsin L1 on eosinophil attachment ([9]; 5 μg/ml, with immune serum and NEJ or mature fluke E/S products or purified Cathepsin L1) | rate at which eosinophils are lost from the NEJ surface ([9]; in the presence of immune serum, FIG. 4 panel I) | viability of NEJ [10]
C[C@H](NC(=O)[C@H](Cc1ccccc1)NC(=O)OCc1ccccc1)C(=O)C=[N+]=[N-] [Z-phe-ala-CHN2] | completely inhibited | completely inhibited |  |  |  |  |  |  |  |  |  |  | 
Cc1cc(=O)oc2cc(NC(=O)[C@H](CCCN=C(N)N)NC(=O)[C@@H]3CCCN3C(=O)[C@@H](NC(=O)OC(C)(C)C)C(C)C)ccc12 [Boc-Val-Pro-Arg-AMC] (Boc-Val-Pro-Arg-{AMC}) |  |  | 1.19 | 24.8 | 0.02 | 43.6 |  |  |  |  |  |  | 
Cc1ccc(S(=O)(=O)NCC(=O)N2CCC[C@H]2C(=O)N[C@@H](CCCCN)C(=O)Nc2ccc3c(C)cc(=O)oc3c2)cc1 [Tos-Gly-Pro-Lys-AMC] (Tos-Gly-Pro-Lys-{AMC}) |  |  | 1.37 | 35.5 | 0.03 | 107 |  |  |  |  |  |  | 
Cc1cc(=O)oc2cc(NC(=O)[C@H](CCCN=C(N)N)NC(=O)OCc3ccccc3)ccc12 [Z-Arg-AMC] |  |  | 0.09 | 14.1 | 0.04 | 20.4 | 63 | 5 | 1 | 3 |  |  | 
Cc1cc(=O)oc2cc(NC(=O)[C@H](Cc3ccc(O)cc3)NC(=O)[C@@H](NC(=O)[C@H](CC(C)C)NC(=O)[C@H](CC(C)C)NC(=O)CCC(=O)O)C(C)C)ccc12 [Suc-Leu-Leu-Val-Tyr-AMC] (Suc-LLVY-{AMC}) |  |  | 0.08 | 23.3 | 0.01 | 38.5 |  |  |  |  |  |  | 
Cc1cc(=O)oc2cc(NC(=O)[C@H](Cc3ccc(O)cc3)NC(=O)[C@@H](NC(=O)[C@@H](N)CC(C)C)C(C)C)ccc12 [H-Leu-Val-Tyr-AMC] (H-Leu-Val-Tyr-{AMC}) |  |  | 0.21 | 3.75 | 0.02 | 5.4 |  |  |  |  |  |  | 
Cc1cc(=O)oc2cc(NC(=O)[C@H](CCCCN)NC(=O)[C@H](Cc3ccccc3)NC(=O)[C@H](C)NC(=O)CCC(=O)O)ccc12 [Suc-Ala-Phe-Lys-AMC] (Suc-Ala-Phe-Lys-{AMC}) |  |  | 0.14 | 41.1 | 0.05 | 65.3 |  |  |  |  |  |  | 
CC(=O)N[C@@H](CC(C)C)C(=O)N[C@@H](CC(C)C)C(=O)N[C@H](C=O)CCCNC(=N)N [leupeptin] |  |  |  |  |  |  |  |  |  |  | inhibits the effect of the E/S products and Cathepsin L1 | slightly reduces | did not affect their viability
Cc1cc(=O)oc2cc(NC(=O)[C@H](CCCN=C(N)N)NC(=O)[C@H](CCCN=C(N)N)NC(=O)OCc3ccccc3)ccc12 [Z-Arg-Arg-AMC] (Cbz-Arg-Arg-{AMC}) |  |  | 0.02 | 9.07 | 0.002 | 65.6 | 21 | 2 | 0 | 0 |  |  | 
Cc1cc(=O)oc2cc(NC(=O)[C@H](CCCCN)NC(=O)[C@H](CC(C)C)NC(=O)[C@@H](NC(=O)OC(C)(C)C)C(C)C)ccc12 [Boc-Val-Leu-Lys-AMC] (Boc-Val-Leu-Lys-{AMC}) |  |  | 3.75 | 7.34 | 7.90 | 34.7 |  |  |  |  |  |  | 
Cc1cc(=O)oc2cc(NC(=O)[C@H](CCCN=C(N)N)NC(=O)[C@@H](NC(=O)[C@H](Cc3ccccc3)NC(=O)c3ccccc3)C(C)C)ccc12 [Bz-Phe-Val-Arg-AMC] (Bz-Phe-Val-Arg-{AMC}) |  |  | 0.06 | 1.2 | 0.03 | 9.25 |  |  |  |  |  |  | 
Cc1ccc(S(=O)(=O)NCC(=O)N2CCC[C@H]2C(=O)N[C@@H](CCCNC(=N)N)C(=O)Nc2ccc3c(C)cc(=O)oc3c2)cc1 [Tos-Gly-Pro-Arg-AMC] (Tos-Gly-Pro-Arg-{AMC}) |  |  | 1.93 | 17.1 | 0.03 | 26 |  |  |  |  |  |  | 
Cc1cc(=O)oc2cc(NC(=O)[C@H](CCCNC(=N)N)NC(=O)[C@H](Cc3ccccc3)NC(=O)OCc3ccccc3)ccc12 [Z-Phe-Arg-AMC, benzyloxycarbonyl-L-phenylalanyl-L-arginyl-7-amido-4-methyl coumarin] (Cbz-Phe-Arg-{AMC}) |  |  | 0.56 | 3.76 | 1.08 | 14.7 | 1254 | 90 | 25 | 29 |  |  | 
